PubChem BioAssay AID330 (DTP/NCI, 2004)
Several values for one entry are separate records, joined by “and”; a condition that tells them apart may be missing. Equal values may be shown once. Toxic doses and inconclusive results are not listed.

Tested on: P388 leukemia ip, CD2F1 mice, survival T/C
Test: NCI In Vivo Anticancer Drug Screen. Data for tumor model P388 Leukemia (intraperitoneal) in CD2F1 (CDF1) mice
Details: endpoint: median survival time, higher = longer survival
How it was run: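 Mice carrying the transplanted tumor received test compound or vehicle. Survival was recorded in each group, and the value is the treated-group measurement divided by that of the vehicle-treated control group.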

[1] = dose: 200.0 mg/kg/injection, schedule: Q01DX009 (ip), vehicle: saline with Tween-80
[2] = dose: 50.0 mg/kg/injection, schedule: Q01DX009 (ip), vehicle: Klucel (hydroxypropylcellulose) (HPC)
[3] = dose: 100.0 mg/kg/injection, schedule: Q01DX009 (ip), vehicle: Klucel (hydroxypropylcellulose) (HPC)
[4] = dose: 200.0 mg/kg/injection, schedule: Q01DX009 (ip), vehicle: Klucel (hydroxypropylcellulose) (HPC)
[5] = dose: 60.0 mg/kg/injection, schedule: Q01DX005 (ip), vehicle: saline with Tween-80
[6] = dose: 120.0 mg/kg/injection, schedule: Q01DX005 (ip), vehicle: saline with Tween-80
[7] = dose: 240.0 mg/kg/injection, schedule: Q01DX005 (ip), vehicle: saline with Tween-80
[8] = dose: 50.0 mg/kg/injection, schedule: Q01DX005 (ip), vehicle: Klucel (hydroxypropylcellulose) (HPC)
[9] = dose: 100.0 mg/kg/injection, schedule: Q01DX005 (ip), vehicle: Klucel (hydroxypropylcellulose) (HPC)
[10] = dose: 200.0 mg/kg/injection, schedule: Q01DX005 (ip), vehicle: Klucel (hydroxypropylcellulose) (HPC)
[11] = dose: 50.0 mg/kg/injection, schedule: Q01DX005 (ip), vehicle: saline with Tween-80
[12] = dose: 100.0 mg/kg/injection, schedule: Q01DX005 (ip), vehicle: saline with Tween-80
[13] = dose: 200.0 mg/kg/injection, schedule: Q01DX005 (ip), vehicle: saline with Tween-80
[14] = dose: 5.0 mg/kg/injection, schedule: Q01DX009 (ip), vehicle: saline with Tween-80
[15] = dose: 10.0 mg/kg/injection, schedule: Q01DX009 (ip), vehicle: saline with Tween-80
[16] = dose: 10.0 mg/kg/injection, schedule: Q04DX003 (ip), vehicle: saline with Tween-80
[17] = dose: 12.5 mg/kg/injection, schedule: Q01DX009 (ip), vehicle: saline with Tween-80
[18] = dose: 100.0 mg/kg/injection, schedule: Q04DX003 (ip), vehicle: Klucel (hydroxypropylcellulose) (HPC)
[19] = dose: 200.0 mg/kg/injection, schedule: Q04DX003 (ip), vehicle: Klucel (hydroxypropylcellulose) (HPC)
[20] = dose: 25.0 mg/kg/injection, schedule: Q01DX009 (ip), vehicle: saline with Tween-80

## Nc1n[nH]c(=S)n1-c1ccc(Cl)cc1
dose: 100.0 mg/kg/injection, schedule: Q01DX009 (ip), vehicle: saline with Tween-80
  T/C: 115 % of control
[1]
  T/C: 120 % of control
dose: 400.0 mg/kg/injection, schedule: Q01DX009 (ip), vehicle: saline with Tween-80
  T/C: 120 % of control

## CC1(C)CC(=O)C=C(NCCCCCCNC2=CC(=O)CC(C)(C)C2)C1
[2]
  T/C: 113 % of control
[3]
  T/C: 103 % of control
[4]
  T/C: 95 % of control

## COc1ccc(C2COc3c(ccc(O)c3O)C2)cc1OC (stereo not given)
[5]
  T/C: 94 % of control
[6]
  T/C: 94 % of control
[7]
  T/C: 94 % of control

## COc1cc(CCN=Cc2cccnc2)c([N+](=O)[O-])cc1OC
[8]
  T/C: 101 % of control
[9]
  T/C: 100 % of control
[10]
  T/C: 100 % of control

## O=C1CN(C(=O)Nc2ccccc2)c2ccccc2N1
[11]
  T/C: 92 % of control
[12]
  T/C: 93 % of control
[13]
  T/C: 90 % of control

## O=C1CCCC2CCC(=O)C12 (stereo not given)
dose: 100.0 mg/kg/injection, schedule: Q04DX003 (ip), vehicle: other
  T/C: 114 % of control
dose: 200.0 mg/kg/injection, schedule: Q04DX003 (ip), vehicle: other
  T/C: 97 % of control
dose: 400.0 mg/kg/injection, schedule: Q04DX003 (ip), vehicle: other
  T/C: 106 % of control

## CCN(CC)CCO[C@H]1CC[C@@]2(C)C(=CC[C@@H]3[C@@H]2CC[C@]2(C)C(=O)CC[C@@H]32)C1
[14]
  T/C: 104 % of control
dose: 5.0 mg/kg/injection, schedule: Q04DX003 (ip), vehicle: saline with Tween-80
  T/C: 91 % of control
[15]
  T/C: 91 % of control
[16]
  T/C: 91 % of control
dose: 20.0 mg/kg/injection, schedule: Q01DX009 (ip), vehicle: saline with Tween-80
  T/C: 95 % of control
dose: 20.0 mg/kg/injection, schedule: Q04DX003 (ip), vehicle: saline with Tween-80
  T/C: 100 % of control

## CN(C)CCCN1CN(CCCN(C)C)CN(CCCN(C)C)C1
dose: 50.0 mg/kg/injection, schedule: Q01DX005 (ip), vehicle: saline
  T/C: 99 % of control
dose: 100.0 mg/kg/injection, schedule: Q01DX005 (ip), vehicle: saline
  T/C: 103 % of control

## CCOC(=O)CC1(O)CCC2C3CC=C4CC(OC5CCCCO5)CCC4(C)C3CCC21C (stereo not given)
dose: 3.0 mg/kg/injection, schedule: Q01DX009 (ip), vehicle: saline with Tween-80
  T/C: 101 % of control
dose: 6.0 mg/kg/injection, schedule: Q01DX009 (ip), vehicle: saline with Tween-80
  T/C: 99 % of control
dose: 12.0 mg/kg/injection, schedule: Q01DX009 (ip), vehicle: saline with Tween-80
  T/C: 100 % of control
[17]
  T/C: 88 % of control

## CCOC(=O)Cn1cnc2cc(Cl)c([N+](=O)[O-])cc2c1=O
[18]
  T/C: 100 % of control and 110 % of control
[19]
  T/C: 101 % of control and 121 % of control
dose: 400.0 mg/kg/injection, schedule: Q04DX003 (ip), vehicle: Klucel (hydroxypropylcellulose) (HPC)
  T/C: 100 % of control
dose: 600.0 mg/kg/injection, schedule: Q04DX003 (ip), vehicle: Klucel (hydroxypropylcellulose) (HPC)
  T/C: 107 % of control

## O=NNc1nc(-c2cccnc2)nc2ccccc12
dose: 1.25 mg/kg/injection, schedule: Q01DX009 (ip), vehicle: water
  T/C: 112 % of control
dose: 2.5 mg/kg/injection, schedule: Q01DX009 (ip), vehicle: water
  T/C: 110 % of control
dose: 5.0 mg/kg/injection, schedule: Q01DX009 (ip), vehicle: water
  T/C: 111 % of control
dose: 10.0 mg/kg/injection, schedule: Q01DX009 (ip), vehicle: water
  T/C: 100 % of control

## CC(C)=Cc1cc(-c2cc(C=C(C)C)on2)no1
dose: 60.0 mg/kg/injection, schedule: Q01DX005 (ip), vehicle: saline
  T/C: 100 % of control
dose: 120.0 mg/kg/injection, schedule: Q01DX005 (ip), vehicle: saline
  T/C: 104 % of control
dose: 240.0 mg/kg/injection, schedule: Q01DX005 (ip), vehicle: saline
  T/C: 100 % of control

## CC1CN=C(c2ccc(NC(=O)c3ccc(C(=O)Nc4ccc(C5=NCC(C)N5)cc4)c(N)c3)cc2)N1 (stereo not given)
dose: 0.5 mg/kg/injection, schedule: Q04DX003 (ip), vehicle: saline
  T/C: 100 % of control
dose: 1.0 mg/kg/injection, schedule: Q04DX003 (ip), vehicle: saline
  T/C: 110 % of control
dose: 2.0 mg/kg/injection, schedule: Q04DX003 (ip), vehicle: saline
  T/C: 120 % of control
dose: 2.5 mg/kg/injection, schedule: Q01DX009 (ip), vehicle: saline with Tween-80
  T/C: 195 % of control
[14]
  T/C: 255 % of control
[15]
  T/C: 170 % of control
[16]
  T/C: 159 % of control

## CN1CCOc2c1cnn(CCO)c2=O
[5]
  T/C: 108 % of control
[6]
  T/C: 108 % of control
[7]
  T/C: 102 % of control

## CCCNc1nc(C)nc2[nH]c(Cc3ccccc3)c(C)c12
[8]
  T/C: 97 % of control
[9]
  T/C: 100 % of control
[10]
  T/C: 100 % of control

## CCOC(=O)/N=[N+](\[O-])c1ccc([N+](=O)[O-])cc1
dose: 100.0 mg/kg/injection, schedule: Q01DX001 (ip), vehicle: Klucel (hydroxypropylcellulose) (HPC)
  T/C: 95 % of control

## Cc1cc(N(CCCl)CCCl)ccc1C=Nc1ccccc1C(=O)O
[20]
  T/C: 117 % of control
dose: 50.0 mg/kg/injection, schedule: Q01DX009 (ip), vehicle: saline with Tween-80
  T/C: 115 % of control
[1]
  T/C: 150 % of control

## NC(=O)c1ccc2c(=O)c(C(=O)O)c[nH]c2c1
dose: 6.25 mg/kg/injection, schedule: Q01DX009 (ip), vehicle: saline with Tween-80
  T/C: 92 % of control
[17]
  T/C: 95 % of control
[20]
  T/C: 94 % of control

## C/C(=C(/O)c1ccc(Cl)cc1)c1nc2ccc(Cl)cc2[nH]c1=O
dose: 60.0 mg/kg/injection, schedule: Q01DX005 (ip), vehicle: Klucel (hydroxypropylcellulose) (HPC)
  T/C: 96 % of control
dose: 120.0 mg/kg/injection, schedule: Q01DX005 (ip), vehicle: Klucel (hydroxypropylcellulose) (HPC)
  T/C: 101 % of control

## COc1ccc(C(c2cc3c(cc2O)OCO3)N2CCCCC2)cc1 (stereo not given)
[5]
  T/C: 114 % of control
[6]
  T/C: 112 % of control
[7]
  T/C: 121 % of control

## O=C(NC(Cc1ccccc1)C(=O)CCl)OCc1ccccc1 (stereo not given)
dose: 25.0 mg/kg/injection, schedule: Q01DX009 (ip), vehicle: other
  T/C: 107 % of control
dose: 25.0 mg/kg/injection, schedule: Q04DX003 (ip), vehicle: saline with Tween-80
  T/C: 115 % of control
dose: 50.0 mg/kg/injection, schedule: Q01DX009 (ip), vehicle: other
  T/C: 105 % of control
dose: 50.0 mg/kg/injection, schedule: Q04DX003 (ip), vehicle: saline with Tween-80
  T/C: 111 % of control
dose: 100.0 mg/kg/injection, schedule: Q04DX003 (ip), vehicle: saline with Tween-80
  T/C: 119 % of control

## Cn1c(=O)c2snnc2n(C)c1=O
[18]
  T/C: 107 % of control
[19]
  T/C: 104 % of control

## Cc1ccccc1CN1C2=NCCN2C(=O)C2=C1CCN(S(=O)(=O)c1ccc(Cl)c(S(N)(=O)=O)c1)C2
dose: 50.0 mg/kg/injection, schedule: Q01DX009 (ip), vehicle: saline
  T/C: 96 % of control
dose: 100.0 mg/kg/injection, schedule: Q01DX009 (ip), vehicle: saline
  T/C: 97 % of control
dose: 200.0 mg/kg/injection, schedule: Q01DX009 (ip), vehicle: saline
  T/C: 90 % of control

## C=C(C)C(=O)Oc1cccccc1=O
[11]
  T/C: 102 % of control
[12]
  T/C: 106 % of control
[13]
  T/C: 114 % of control

## Cc1[nH]c2c(ccc3ccccc32)c(=O)c1N=Nc1ccc(C(=N)N)cc1
dose: 50.0 mg/kg/injection, schedule: Q01DX005 (ip), vehicle: Klucel + Tween-80
  T/C: 124 % of control
dose: 200.0 mg/kg/injection, schedule: Q01DX005 (ip), vehicle: Klucel + Tween-80
  T/C: 154 % of control
dose: 400.0 mg/kg/injection, schedule: Q01DX005 (ip), vehicle: Klucel + Tween-80
  T/C: 168 % of control

## O=[N+]([O-])c1ccc(/C=C/c2cccs2)c([N+](=O)[O-])c1
[2]
  T/C: 105 % of control
[3]
  T/C: 94 % of control
[4]
  T/C: 88 % of control
